Test results reported in PubChem BioAssay (NCI).
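Method: 48-hour compound exposure of cells in 96-well plates, five concentrations, linear interpolation of endpoints. GI50: concentration for 50% inhibition of growth. TGI is the concentration that stops growth completely.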

How the values were obtained:
Assay in all cases: DTP human tumour cell line panel, 48 h
[1] = tested on: NCI-H226 lung
[2] = tested on: RPMI-8226 leukemia
[3] = tested on: IGROV1 ovarian
[4] = tested on: CCRF-CEM leukemia
[5] = tested on: A498 renal
[6] = tested on: HCT-15 colon
[7] = tested on: UACC-257 melanoma
[8] = tested on: HT29 colon

Structure (SMILES) | GI50 [1] [µM] | TGI [1] [µM] | GI50 [2] [µM] | TGI [2] [µM] | GI50 [3] [µM] | TGI [3] [µM] | GI50 [4] [µM] | TGI [4] [µM] | GI50 [5] [µM] | TGI [5] [µM] | GI50 [6] [µM] | TGI [6] [µM] | GI50 [7] [µM] | TGI [7] [µM] | TGI [8] [µM] | GI50 [8] [µM]
O=C(Cc1cc(O)ccc1O)NO | 70 | > 100 | 19 | 40 | > 100 | > 100 | 22.3 | 48.6 | > 100 | > 100 | 74.6 | > 100 | 59.9 | > 100 |  | 
Cc1ccc2ncnc(N(C)C3CCCCC3)c2c1 | 18.7 | 58.4 | 6.11 | 28.7 | 34.1 | > 100 | 34.7 | > 100 | 77.1 | > 100 | 27 | 88.7 |  |  |  | 
CCCCCc1cc(/C=C2/N=C(c3ccc[nH]3)C=C2OC)[nH]c1C |  | 1.79 |  |  |  | 0.195 |  | 0.209 |  | 0.959 |  | 1.05 |  | 0.855 | 0.143 | 
CCCCCCCCCN=C(N)c1ccc(N2CCN(c3ccc(C(N)=NCCCCCCCCC)cc3)CC2)cc1 | 3.77 | > 50 | 1.96 | > 50 | 1.66 | > 50 | 1.77 | 8.34 |  |  | 2.05 | 13.5 | 1.2 | 3.08 | 7.4 | 1.3
CC(=O)OC(C(=O)[O][Ge]([CH3])([CH3])[CH3])c1ccccc1 (configuration not stated) | > 100 | > 100 |  |  | > 100 | > 100 |  |  | > 100 | > 100 | > 100 | > 100 | > 100 | > 100 | > 100 | > 100
CC(=O)[O-].CC(=O)[O-].O=C([CH-]C(=O)c1ccccc1)c1ccccc1.[Nd+3].[OH3+] | 13.8 | 60.6 | 22.8 | > 100 | 28.5 | > 100 |  |  | 43.1 | > 100 | 19.4 | > 100 | 17.9 | 54.9 | 89.6 | 20.9
CC(=O)OC(COc1ccc2c(c1)[n+]([O-])nc(N)[n+]2[O-])CN1CCCCC1 (configuration not stated) |  | 54 |  | 25.8 |  |  |  | 79.3 |  | 16.5 |  | 31.6 |  | 29.1 | 23.1 | 
Nc1nc(N)c2cc(S(=O)(=O)c3ccc4ccccc4c3)ccc2n1 | 10.8 | > 100 |  | > 100 |  | > 100 | > 100 | > 100 |  |  |  | > 100 |  | 2.67 | > 100 | 2.34
COC(=O)C1c2cc3c(c(O)c2CCC1(C)O)C(=O)c1c(O)cc2c(c1C3=O)OC1OC2(C)C(O)C(N(C)C)C1O (configuration not stated) |  | 0.45 |  |  |  | 2.35 |  |  |  |  |  | 1.7 |  | 0.739 | 1.29 | 
N#CC1=C(N)N=C(N2CCOCC2)C(C#N)C12Nc1ccccc1S2 (configuration not stated) | 27.8 | > 100 | 16 | 88.5 | 67.3 | > 100 |  |  |  |  | 29.1 | > 100 | 28 | 89.1 |  | 
Cc1ccc(NC(=S)NNC(=S)Nc2ccc(C)cc2)cc1 | > 100 | > 100 | 4.46 | 65.3 | 6.24 | > 100 |  |  | 2.96 | > 100 | 5.15 | > 100 | 7.13 | > 100 | > 100 | 3.61
CSC1=CC(=O)c2ccccc2C1=O | 1.68 | 3.82 | 2.61 | 7.96 | 3.7 | 13.2 | 0.296 | 1.44 |  |  | 11.6 | 26.1 | 2.04 | 4.36 | 65.2 | 26.3
CCCCCOC(=O)Nc1nc(=O)n(C2OC(C)C(O)C2O)cc1F (configuration not stated) |  |  |  |  |  | > 10000 | > 10000 | > 10000 |  |  | > 10000 | > 10000 | > 10000 | > 10000 | > 10000 | > 10000
Cn1cc(-c2csc(-c3ccccc3)n2)c2cccnc21 | 16.6 | 42.4 | 14.3 | 98 | 16.5 | 37.4 | 22.8 | > 100 |  |  | 12.8 | 31.7 | 21.1 | 44.4 | 27.2 | 14.2
O=C(CCN1CCCCC1)c1csc2ccccc12 |  | > 100 |  | > 100 |  | > 100 |  |  |  | > 100 |  | > 100 |  | > 100 | > 100 | 
COC(=O)C1C(C(=O)O)C2(c3ccccc3)C(=O)C1(c1ccccc1)C(c1ccc(OC)cc1)=C2c1ccc(OC)cc1 (configuration not stated) | 21.9 | 55.6 | 18.2 | 48.5 | 19.9 | 45.8 | 13.2 | 38.5 | 23.2 | 46.2 | 38.6 | > 100 | 19.1 | 43.9 |  | 
